Assay results as given in patent US8535689B2, “Identification of bacterial autoinducer and use in treating bacterial pathogenicity” (priority 2007, dated 2013).
“Also recorded” adds a separate entry of the source.

Key:
[1] = tested on: CAI-1 reporter strain MM920 (V. cholerae El Tor C6706str ΔcqsA ΔluxQ/pBB1 (luxCDABE from V. harveyi)); experiment: Bioluminescence assay in V. cholerae CAI-1 reporter strain MM920; format: cell-based, Vibrio cholerae; settings: for bioluminescence as a percentage of the bioluminescence activity of the V. cholerae CAI-1 autoinducer: reporter strain MM920, reference (S)-3-hydroxytridecan-4-one (CAI-1), FIG. 13; for activation of the V. cholerae quorum sensing circuit: to different degrees, pattern C13(5)>C13(R)>C12(S)≈C12(R)>C11(S)>C11(R); for activation of the V. cholerae quorum sensing circuit / fold greater biological activity than the molecule one carbon shorter: FIG. 3; for fold greater biological activity than the molecule one carbon shorter: side chain length comparison
Description: CAI-1 Purification from E. coli. V. cholerae cqsA (VCA0523) was cloned into pTrc99A and transformed into E. coli strain DH5α. The recombinant strain was grown at room temperature with aeration in 2.4 L of M9 medium supplemented with glucose (4 g/L), leucine (0.5 g/L), and ampicillin (0.1 g/L). cqsA expression was induced for 16 h with 0.5 mM IPTG. Following centrifugation at 10,000×g and passage through a 0.22 μm filter, the cell-free culture fluid was mixed with 0.6 v dichloromethane (DCM) in a reparatory funnel. The organic phase was isolated, evaporated, and assayed for CAI-1 activity using the bioluminescent V. cholerae CAI-1 reporter strain MM920 (V. cholerae El Tor C67O6str ΔcqsA ΔluxQ/pBB1 (luxCDABE from V. harveyi)), as described in Miller et al. (2002). The extract was dissolved in DCM and further purified by passage through silica gel with 0.5 L of 7:3 DCM:methanol, followed by concentration via evaporation. 50-100 mg of the concentrate was dissolved in ˜1 mL DCM, injected onto a (2×25-cm) ethyl-pyridine HPLC column, and eluted using a gradient of increasing ethyl acetate in hexanes (0-80%) at 20 mL/min. Fractions were tested for CAI-1 activity; active fractions were pooled.
Bioluminescence Assays. When assaying column fractions for autoinducer activity, 5% of each fraction was evaporated and dissolved in a mixture of water:acetonitrile (2:1). This preparation was added at 2% volume to the CAI-1 reporter strain MM920 (V. cholerae El Tor C67O6str ΔcqsA ΔluxQ/pBB1 (luxCDABE from V. harveyi)) according to previously described methods, as described in Miller et al. (2002). Synthetic CAI-1 preparations were dissolved in DMSO and supplied at 0.5% total volume to MM920 at specified concentrations.
[…]. Bioluminescence measurements at varying concentrations of analogue (generally from […]) were measured using a Wallac EnVision 2103 Multilabel Reader (Perkin Elmer, Waltham, Mass.).

[2] = tested on: TcpA, a subunit of the toxin co-regulated pilus (TCP); experiment: Western blot of TcpA production in V. cholerae strains treated with synthetic CAI-1; format: cell-based, Vibrio cholerae; settings: ΔluxQ
Source text: Western Blot Analysis. […]. Anti-TcpA antibody and Anti-Rabbit IgG Horseradish Peroxidase Conjugate (Promega) were used with the SuperSignal West Pico Chemiluminescent Substrate (Pierce) system.
Results. A major goal of quorum-sensing research is to develop strategies to artificially manipulate quorum-sensing-controlled processes in bacteria. […]. Proc. Natl. Acad. Sci. USA 84, 2833-2837 (1987), hereby incorporated by reference into this application. […]. […]. Importantly, synthetic CAI-1 had no effect on TcpA production in a ΔluxQ, ΔcqsS strain, which cannot respond to either CAI-1 or AI-2 (FIG. 4b, bottom row). […]

[3] = CAI-1 thermal stability, read with the V. cholerae bioluminescence assay; format: physicochemical; settings: pH 7 phosphate buffer, FIG. 6a
Description: CAI-1 stock in DMSO was diluted 1:128 into 10 mM potassium phosphate buffer at pH 7 to a final autoinducer concentration of 400 μM. Samples were incubated for specified lengths of time, chilled briefly on ice, and frozen in dry ice/ethanol. Samples were thawed, diluted 1:3 in the same phosphate buffer, and read with the V. cholerae bioluminescence assay. Diluted sample was added at 2.5% of reporter culture volume, for final concentrations of 3.3 μM CAI-1 and 250 μM potassium phosphate.

[4] = CAI-1 pH stability, read with the V. cholerae bioluminescence assay; format: physicochemical; settings: pH 2, 4, 6, 7, 8, 10, 12 potassium phosphate buffer; 5, 20, 60 minutes or overnight; FIG. 6b
Description: CAI-1 stock in DMSO was diluted 1:128 into 100 mM potassium phosphate buffer at specified pH values to a final autoinducer concentration of 400 μM. Following incubation at room temperature for specified times, samples were neutralized with an equal volume of 100 mM potassium phosphate buffer (e.g. pH 10 buffer was added to pH 4 buffered autoinducer). Neutralized samples, now with 200 μM CAI-1, were chilled briefly on ice and frozen in dry ice/ethanol. Autoinducer samples were thawed, diluted 1:3 in 100 mM pH 7 potassium phosphate buffer, and read with the V. cholerae bioluminescence assay. Diluted sample was added at 5% of reporter culture volume, for final concentrations of 3.3 μM CAI-1 and 5 mM potassium phosphate.

[5] = tested on: E. coli KX1200 (MG1655 ΔluxS); experiment: CAI-1 stability in culture with E. coli cells; format: in vitro ADME, Escherichia coli; settings: E. coli ΔluxS in LB, 37° C. overnight, 10 μM CAI-1; FIG. 6d
Description: (§1) Early stationary phase E. coli KX1200 (MG1655 ΔluxS) and V. cholerae BH1575 (El Tor C6706str ΔluxS ΔcqsA) were diluted to OD 0.1 in LB medium. Along with sterile LB medium, they were shaken overnight at 37° C. with and without 10 μM CAI-1 supplementation. Culture and LB samples were centrifuged at 10,000×g, filtered with 0.22 μm filters, and read at 10% final culture volume using the V. cholerae CAI-1 reporter bioassay.

[6] = tested on: V. cholerae BH1575 (El Tor C6706str ΔluxS ΔcqsA); experiment: CAI-1 stability in culture with V. cholerae cells; format: in vitro ADME, Vibrio cholerae; settings: V. cholerae ΔluxS ΔcqsA in LB, 37° C. overnight, 10 μM CAI-1; FIG. 6d
Description: as §1

SMILES	bioluminescence as a percentage of the bioluminescence activity of the V. cholerae CAI-1 autoinducer [1]	activation of the V. cholerae quorum sensing circuit [1]	further results
[2H]C([2H])(C)C(O)C(=O)CCCCCCCCC (stereo not drawn) [2,2-D2-3-hydroxytridecan-4-one]	equivalent activity to CAI-1		
CCCCCCCC(=O)[C@H](O)CC [C11(R), (R)-3-hydroxyundecan-4-one]		activated	
CCCCCCCC(=O)[C@@H](O)CC [C11(S), (S)-3-hydroxyundecan-4-one]		activated	
CCCCCCCCCC(=O)[C@@H](O)CC [CAI-1, (S)-3-hydroxytridecan-4-one]	100%	activated	TcpA production ([2]; cqsA+ V. cholerae strain, FIG. 4b middle row): repress TcpA production; also recorded: decreased; TcpA production ([2]; ΔcqsA V. cholerae strain, CAI-1 at concentrations up to 10 μM, FIG. 4b top row): repress TcpA production; also recorded: substantially repressed; TcpA production ([2]; ΔcqsS V. cholerae strain, FIG. 4b bottom row): no effect; heat stability ([3]; high temperatures (up to 80° C.)): subject to degradation; heat stability ([3]; physiologically relevant temperatures, 5, 20, 60 minutes or overnight): heat stable; pH stability [4]: stable under a wide range of pH values; effect of cells on CAI-1 levels [5]: do not adversely affect CAI-1 levels; effect of cells on CAI-1 levels [6]: do not adversely affect CAI-1 levels
CCCCCCCCC(=O)[C@@H](O)CC [Compound 5, (S)-3-hydroxydodecan-4-one]	twenty	activated	
CCCCCCCCC(=O)[C@H](O)CC [Compound 6, (R)-3-hydroxydodecan-4-one]	twenty	activated	
CCCCCCCCCC(=O)[C@H](O)CC [Compound 7, (R)-3-hydroxytridecan-4-one]	forty	activated	
CCCCCCCCCC(=O)C(=O)CC [Compound 10, tridecane-3,4-dione]	ten		bioluminescence as a percentage of the bioluminescence activity of the V. cholerae CAI-1 autoinducer ([1]; listed as tridecan-3,4-dione): 10%
CCCCCCCCCC(=O)C(N)CC.Cl (stereo not drawn) [Compound 22, 3-aminotridecan-4-one hydrochloride]	equivalent activity to CAI-1		
CCCCCCCCCC(=O)C(O)CC (stereo not drawn) [thirteen-carbon molecule, 3-hydroxytridecan-4-one]			fold greater biological activity than the molecule one carbon shorter [1]: 8 fold
CCCCCCCCC(=O)C(O)CC (stereo not drawn) [twelve-carbon molecule, 3-hydroxydodecan-4-one]			fold greater biological activity than the molecule one carbon shorter [1]: 8 fold
